Data set [1] concerns Myc-CAP (STING^lo) cancer cells. The data set can be described thus: IFNβ1 ELISA of supernatants after DMXAA treatment. The data set is classed as cell-based, mouse. The note with it: 36 hours. As for the experimental part: (§1) FIGS. 15A-15E. Differential STING pathway activation within B6-Myc (STING^hi) cell lines and BMDMs relative to Myc-CAP (STING^lo) cells. (15A, 15B) The indicated cancer cell lines and BMDMs were treated with DMXAA (mouse STING agonist) for 1 and 24 hours, respectively, and protein extracts were interrogated for cGAS/STING pathway activation with the indicated antibodies by Western blotting. Supernatants were collected from for IFNβ1 ELISA following 36 hours of treatment with DMXAA (15C, 15D). (15E) Syngeneic Myc-CAP (STING^lo) tumors were processed into single cell suspensions and used for phycoerythrin-based sorting of CD45+ cellular fractions. Equal numbers of cells from these fractions were stimulated with DMXAA. Supernatants were collected at 36 hrs for detection of IFNB1 by ELISA; n=3 independent experiments; Significance/p-values were calculated by one-way Anova (for 15C & 15E) or paired t-test (for 15D); TAM=tumor associated macrophage; s.e.=short exposure; l.e.=long exposure.
(§2) Cancer Cell Lines. Transgenic c-myc” prostate tumor derived cell line, Myc-CAP) (STING^lo) was obtained from ATCC and passaged in 1× DMEM (without phenol red) containing 10% fetal bovine serum, 1% penicillin-streptomycin and 2% L-glutamine. The corresponding c-myc^hi line derived from a C57BL6 generated background were grown for in vitro studies, using same culture conditions as for Myc-CAP. […]

Data set [2] has as its system Myc-CAP tumors with Intermediate tumor cell intrinsic levels of STING. The data set can be described thus: Survival of mice bearing STING-overexpressing Myc-CAP tumors. The data set is classed as in vivo, mouse. The note with it: DMXAA single intra-tumoral dose. How it is done:
FIG. 52. STING agonist treatment is protective to mice bearing Myc-CAP tumors with Intermediate (not high) tumor cell intrinsic levels of STING. Syngeneic mice bearing Myc-CAP wild-type (WT) and STING overexpressed (STING OE; clone 34) or STING intermediate (STING OE; clone 35) tumors (200 mm^3) were treated with DMXAA ([…] intra-tumoral dose). Tumors were monitored until cut-off tumor volume of 2500 mm^3, and Kaplan Meier curves were plotted. n=3 mice per cohort.

Data set [3] deals with B6-Myc (STING^hi) cancer cells. The data set can be described thus: IFNβ1 ELISA of supernatants after DMXAA treatment. The data set is classed as cell-based, mouse. The note with it: 36 hours. As for the experimental part:
as §1, §2

The test system of data set [4] is Myc-CAP-PTEN-deficient cancer cells. The data set can be described thus: Exosome dsDNA content by Nanodrop. The data set is classed as cell-based, mouse. The settings on record: rucaparib 36 hours. How it is done:
FIGS. 40A and 40B. […] Isogenic PTEN-proficient and CRISPR-CAS9-mediated PTEN-knockout Myc-CAP cells were treated with rucaparib for 36 hours. Exosomes were collected by ultracentrifugation and used for quantification of particle number by Nanosight (40A) and dsDNA content by Nanodrop® (40B). n=2 experiments.
FIGS. 41A and 41B. […] Exosomes were collected by ultracentrifugation and used for quantification of particle number by Nanosight (41A) and dsDNA content by Nanodrop® (41B). n=2 experiments.
Microvesicle Isolation (MVs)/DNA extraction. Cells were treated for 36 hours with the indicated drugs, and supernatants were harvested and then centrifuged at 300×g for 5 minutes at 4° C. to pellet cells, This was followed by additional centrifugation steps at 2,000×g for 10 min at 4° C. to eliminate dead cell debris and at 10,000×g for 30 min in at 4° C. to remove larger vesicles. The supernatant was then collected and subjected to 100,000×g centrifugation in a Type 60 Ti rotor (38000 rpm) for 70 min at 4 ° C. […] The final EV pellet was collected in 1×PBS and used for quantification. […] Equal numbers of EVs were collected from each treatment group and DNA was extracted using Trizol® LS as per protocol (Thermo Fischer Scientific®) and then quantified using Nanodrop®.

Experimental findings from patent publication US20210017607A1, “Methods of Predicting Responsiveness to Cancer Therapies” (The University of Chicago, priority 2019, published 2021) are described below.

On to `Cc1ccc2c(=O)c3cccc(CC(=O)O)c3oc2c1C` [DMXAA, 5,6-Dimethylxanthenone-4-acetic Acid], for which the “induction in IFN-β levels” value in data set [1] is given as “not observed”. Further, the “survival (Kaplan Meier)” value in data set [2] is “protective”. In data set [3], the “fold induction in IFN-β levels” value amounted to 48.1 fold.

`CNCc1ccc(-c2[nH]c3cc(F)cc4c3c2CCNC4=O)cc1` [rucaparib]: the “exosomal dsDNA content relative to PTEN-proficient counterparts” value in data set [4] (CRISPR-CAS9 PTEN-knockout) and in data set [4] (siRNA PTEN-knockdown) was “significantly reduced dsDNA content” throughout.
